Results reported in US20060258597A1, “Antitumorigenic drug combination and dosing schedule” (priority 2005, published 2006).
[ ]: non-standard residue; d: D form. d(aIle) = CC[C@H](C)[C@@H](N)C(=O)O; Nva = CCC[C@H](N)C(=O)O; Sar = CNCC(=O)O

System: HT-1080 cells
Assay: HT-1080 tumor growth inhibition in SCID mice (subcutaneous flank xenograft)
Format: in vivo
Details: peptide 120 Mpk BID SC and/or bevacizumab 3.0 Mpk twice per week SC; for % T/C: size of tumor treated/control
Procedure: Female SCID mice (Charles River Laboratories, Wilmington, Mass., USA) with an average body weight of 18.7 g were inoculated subcutaneously into the right flank with 0.1 mL of about 0.5×10^6 HT-1080 cells (1:1 matrigel) on a Friday. Day 3, post inoculation (Monday), the mice were ear tagged and randomized into groups of ten control and treated groups. The representative prodrug of a peptidomimetic of the second of the three Type-1 repeats of TSP-1, N-Ac-Sar-Gly-Val-D-alloIle-Thr-Nva-Ile-Arg-Pro-NHCH2CH3 (120 mpk), was administered twice per day (BID) during the dosing regimen, and the representative […] bevacizumab (3 mpk) was administrated each Monday and Wednesday during the same dosing regimen. Tumors were measured with calipers every Monday, Wednesday and Friday days beginning at day 3, post inoculation. Tumor volumes were calculated according to the formula V=L×W^2/2, wherein V is volume (mm^3), L is length and W is width. Antitumorigenesis was measured by percent tumor growth inhibition (TGI).
The term “mpk,” as used herein, means milligrams drug per kilogram mammal.
The term “SE,” as used herein, means standard error.
The term “T/C,” as used herein, means size of tumor (treated/control).
The term “SC,” as used herein, means subcutaneously.
The term “p-value,” as used herein, means confidence level of comparison to control.
Controls comprised vehicle only. Vehicles for N-Ac-Sar-Gly-Val-D-alloIle-Thr-Nva-Ile-Arg-Pro-NHCH2CH3 and bevacizumab were D5W (5% glucose in water) and isotonic saline (0.9% NaCl in water), respectively.

Row | Substance | % TGI (percent tumor growth inhibition) (Day 7) [%] | % T/C (Day 7) [%] | % TGI (percent tumor growth inhibition) (Day 10) [%] | % T/C (Day 10) [%] | % TGI (percent tumor growth inhibition) (Day 12) [%] | % T/C (Day 12) [%] | % TGI (percent tumor growth inhibition) (Day 14) [%] | % T/C (Day 14) [%]
1 | Ac-[Sar]GV[d(aIle)]T[Nva]IRP-NHEt | 30.24 | 69.76 | 41.61 | 58.39 | 44.30 | 55.70 | 48.79 | 51.21
2 | bevacizumab | 33.68 | 66.32 | 39.40 | 60.60 | 39.25 | 60.75 | 58.30 | 41.70
